Read-outs that look alike come from different tables or passages of the source. Numbered stars: 1 amine (or outer) side, 2 acyl side, 3 side chain; on linkers, the order of the positions; unused ones are H or OH. Bridge positions count the residues as written; N and C are the ends. Square brackets hold non-standard residues; d marks the D form. Peptide text beside a SMILES is read from it. I, II: the chains in the order shown. Actinocin(9to1) = Cc1c2oc3c(C)ccc(C(=O)[*:1])c3nc-2c(C(=O)[*:2])c(N)c1=O; NMeV = CN[C@H](C(=O)O)C(C)C; Sar = CNCC(=O)O
Experiments:
[1] = test system: multi-drug resistant sarcoma cell line MES-SA-Dx5; assay: Cell growth assay on MES-SA-Dx5 cells; format: cell-based; settings: for Magnitude of potentiation in combination with doxorubicin: MES-SA-Dx5, uterus sarcoma
Description: (§1) Compositions were tested on CHOP-resistant G3 NHL cells that had been cultivated in RPMI medium for five days. Prior to assay, the cells were counted by haemocytometer and cell concentration standardized to 625,000 cells/ml. Test drugs were solubilized in 100% DMSO and then diluted to final assay concentration with 0.1M phosphate buffered saline (PBS) and a final DMSO concentration of 0.5%. Cells were added to assay plates containing the test drugs (rifabutin+148 ng/ml, 74 ng/ml, 37 ng/ml, or 0 ng/ml doxorubicin) and allowed to incubate for 96 hours at 37° C. and 5% CO2. The metabolic dye rezasurin was added to the wells of the assay plate at a final concentration of 20 μg/ml and the plates were incubated for an additional 24 hours. The plates were then read in a BMG Polarstar plate reader at wavelength (573-605) and the data plotted as OD versus increasing dilutions (i.e. decreasing total amounts) of rifabutin derivative concentration.
(§2) In these experiments, the following cell lines were used: CHOP-resistant NHL cell line G3, CHOP-sensitive NHL cell line CRL2631, the multi-drug resistant sarcoma cell line MES-SA-Dx5; multi-drug-resistant breast cancer cell line MDA-MB-231, multi-drug resistant ovarian carcinoma cell line SK-OV3, multi-drug resistant ovarian cancer cell line NCI/ADR-RES, drug-sensitive ovarian cancer cell line OVCAR-5, and multi-drug resistant ovarian cancer cell line OVCAR-3.
(§3) Additional cell lines used include: ovarian cancer OVCAR-8, T lymphoblastoid leukemia MOLT-4, dexamethasone-resistant multiple myeloma MM.1R, myeloid leukemia cells HL-60, osteosarcoma cells U-2 OS, and myeloma RPMI 8226.

[2] = test system: T lymphoblastoid leukemia MOLT-4; assay: Cell growth assay on MOLT-4 cells; format: cell-based
Description: as §1, §3

[3] = test system: dexamethasone-resistant multiple myeloma MM.1R; assay: Cell growth assay on MM.1R cells; format: cell-based; settings: for Fold increase in potency: with vs without Rifabutin
Description: as §1, §3

[4] = test system: multi-drug resistant ovarian cancer cell line OVCAR-3; assay: Cell growth assay on OVCAR-3 cells; format: cell-based; settings: for IC50: Homo sapiens
Description: as §1
as §2, with “OVCAR-3. […]” for “OVCAR-3.”

[5] = test system: lymphoma cell line G3; assay: Cell growth assay (resazurin fluorescence) on CHOP-resistant G3 NHL cells; format: cell-based, human; settings: for Magnitude of potentiation in combination with doxorubicin: G3, lymphoma B cells; for IC50 / Fold increase in potency over DOX alone: lymphoma cell line G3
Description: as §1

[6] = test system: G3 CHOP-resistant NHL cells; settings: fourth study
Description: In a first efficacy study, 6-8 week old female SCID mice (7 mice per treatment arm) were injected subcutaneously on both flanks with 1×10^7 G3 CHOP-resistant NHL cells. Once palpable tumors (about […] size) appeared, therapies (CHOP or CHOP+rifabutin) were started. CHOP was administered at the maximum tolerated dose (cyclophosphamide, 40 mg/kg i.v.; doxorubicin, 3.3 mg/kg i.v.; vincristine, 0.5 mg/kg i.v.; and prednisone, 0.2 mg/kg orally daily for 5 d) weekly for 3 weeks. Rifabutin in an amount of 100 mg/kg was administered on the day of each CHOP treatment and 24-hours later by gavage. Mouse body weight and tumor size were monitored every two days and tumor size measured by caliper. The tumor volume formula (L*W*W)/2 was used to calculate tumor mass.
A second efficacy study was conducted where mice were treated before the appearance of palpable tumors. In that experiment, one week after transplantation of CHOP-resistant G3 cells, one group (7 mice) was treated with CHOP-only and a second group (8 mice) was treated with CHOP+rifabutin.
A third study was conducted in which mice injected with CHOP-resistant G3 cells received reduced dosages of CHOP in combination with 33 mg/kg rifabutin. CHOP+rifabutin was administered weekly beginning one week post-inoculation. Control mice were given no CHOP or rifabutin.
SCID mice were injected with CHOP-resistant G3 cells in the same manner as the first efficacy study above. Treatments began 2 weeks post-inoculation and were administered twice weekly.

[7] = test system: multi-drug resistant ovarian cancer cell line NCI/ADR-RES; assay: Cell growth assay on NCI/ADR-RES cells; format: cell-based; settings: NCI/ADR-RES, ovarian carcinoma
Description: as §1, §2, §3

[8] = test system: multi-drug resistant ovarian carcinoma cell line SK-OV3; assay: Cell growth assay on SK-OV3 cells; format: cell-based, human; settings: SK-OV3, ovarian carcinoma
Description: as §1
as §2, with “OVCAR-3. […]” for “OVCAR-3.”

[9] = test system: drug-sensitive ovarian cancer cell line OVCAR-5; assay: Cell growth assay on OVCAR-5 cells; format: cell-based; settings: for Magnitude of potentiation in combination with doxorubicin: OVCAR-5, ovarian carcinoma; for IC50: Homo sapiens
Description: as §1, §2, §3

[10] = test system: primary human fibroblasts; settings: with and without 2 uM Dox
[11] = test system: calcium in G3 cells; assay: Calcium mobilization (Fluo-4AM, flow cytometry); format: cell-based, human; settings: Dox-resistant cells (G3R, 10R, WSUR), 10 uM, 2 hrs, FIG. 41B/41C
Description: MDR/P-gp activity is closely associated with calcium status in the cell, so calcium modulators were tested for effects on ROS. […] Relatively Dox-sensitive lymphoma (CRL2631, 10S, WSU) and ovarian carcinoma (OVCAR8) and more Dox-resistant lymphoma (G3R,10R, WSUR) and ovarian carcinoma (ADR) were treated with 10 uM […] for 2 hrs. […] Cells were co-stained with the cell-permeable red fluorescent ROS indicator, CellROX, and cell-permeable green fluorescent calcium indicator, Fluo-4AM, and then subjected to flow cytometry to quantitate changes in ROS and calcium levels.
(§4) All samples were analyzed at the same time in flow cytometry.

[12] = test system: ROS in OVCAR8 ovarian cells; assay: Intracellular ROS (CellROX, flow cytometry) in OVCAR8 cells; format: cell-based; settings: 10 uM, 2 hrs, degree much less than in resistant lines
From the text: (§5) Cells were then stained with the fluorescent ROS indicator, CellROX, and subjected to flow cytometry to quantitate total intracellular ROS.

[13] = test system: ROS in ADR-RES ovarian cells; assay: Intracellular ROS (CellROX, flow cytometry) in ADR-RES cells; format: cell-based; settings: 10 uM, 2 hrs
From the text: as §5

[14] = test system: ROS in G3 lymphoma cells; assay: Intracellular ROS (CellROX, flow cytometry) in G3 cells; format: cell-based, human; settings: 10 uM, 2 hrs
Description: as §5
The electron transport chain (ETC) is known to be a primary generator of ROS in the cell. Most of the ROS is generated by Complexes I and III of the ETC Inhibition of Complex I results in electrons piling up and leaking to react with oxygen to produce ROS.
as §4

[15] = therapeutic drug alone, read-out: IC50
[16] = therapeutic drug with Rifabutin, read-out: IC50 (μM) with Rifabutin
[17] = with 1 μM doxorubicin, read-out: IC50 (μM) with doxorubicin (1 μM)

## Cc1c2oc3c(C)ccc(C(=O)N[C@@H]4C(=O)N[C@H](C(C)C)C(=O)N5CCC[C@H]5C(=O)N(C)CC(=O)N(C)[C@@H](C(C)C)C(=O)O[C@@H]4C)c3nc-2c(C(=O)N[C@@H]2C(=O)N[C@H](C(C)C)C(=O)N3CCC[C@H]3C(=O)N(C)CC(=O)N(C)[C@@H](C(C)C)C(=O)O[C@@H]2C)c(N)c1=O [Actinomycin D, actinomycin D] (I: T[dV]P[Sar][NMeV] / II: T[dV]P[Sar][NMeV]; ester I:1-I:C, II:1-II:C; linker I:N-II:N via Actinocin(9to1))
[1]; therapeutic drug alone, MES-SA-Dx5, read-out: IC50
  IC50: 0.03 µM
[1]; therapeutic drug with Rifabutin, MES-SA-Dx5, read-out: IC50 (μM) with Rifabutin
  IC50: 0.01 µM
[1]; with vs without Rifabutin, MES-SA-Dx5
  Fold increase in potency: 3 fold
[2]; [15]
  IC50: 0.04 µM
[2]; [16]
  IC50: < 0.008 µM
[2]; with vs without Rifabutin
  Fold increase in potency: >5 fold

## CC[C@@]1(O)C(=O)OCc2c1cc1n(c2=O)Cc2cc3ccccc3nc2-1 [Camptothecin, camptothecin]
[3]; [15]
  IC50: 1.13 µM
[3]; [16]
  IC50: 0.3 µM
[3]
  Fold increase in potency: 3.8 fold

## CC1=CC(=O)c2ccccc2C1=O [Menadione, menadione]
[4]; therapeutic drug alone, OVCAR-3, read-out: IC50
  IC50: > 32 µM
[4]; therapeutic drug with Rifabutin, OVCAR-3, read-out: IC50 (μM) with Rifabutin
  IC50: 10.9 µM
[4]; with vs without Rifabutin, OVCAR-3
  Fold increase in potency: >2.9 fold
[3]; [15]
  IC50: 4 µM
[3]; [16]
  IC50: 2 µM
[3]
  Fold increase in potency: 2 fold

## COC1C=COC2(C)Oc3c(C)c(O)c4c(c3C2=N)C2=NC3(CCN(C(=O)OCC(C)C)CC3)NC2=C(NC(=O)C(C)=CC=CC(C)C(O)C(C)C(O)C(C)C(OC(C)=O)C1C)C4=O (stereo not drawn) [RTI-81, 11-deoxy-11-imino-4-deoxy-3,4[2-spiro-[1-(isobutyloxycarbonyl)-piperidin-4-yl]]-(1H)-imidazo-(2,5-dihydro)rifamycin S]
[5]
  Magnitude of potentiation in combination with doxorubicin: +++ (potentiation greater than 5 fold increase)
[5]; analog alone, read-out: IC50
  IC50: > 64 µM
[5]; [17]
  IC50: 0.3 µM
[6]; DOX 3.3 mg/kg iv + RTI-81 10 mg/kg by gavage twice weekly
  longer life than doxorubicin only: 27%
[6]; doxorubicin+RTI-81 group
  mean lifespan: 42.6
  median lifespan: 42
[7]
  Magnitude of potentiation in combination with doxorubicin: + (potentiation between 1.2 to 2.0 fold increase)
[1]
  Magnitude of potentiation in combination with doxorubicin: ++ (potentiation between 2.1 to 5 fold increase)
[8]
  Magnitude of potentiation in combination with doxorubicin: +++ (potentiation greater than 5 fold increase)

## CO[C@H]1/C=C/O[C@@]2(C)Oc3c(C)c(O)c4c(c3C2O)C2=NC3(CCN(C(=O)OCC(C)C)CC3)NC2=C(NC(=O)/C(C)=C\C=C\[C@H](C)[C@H](O)[C@@H](C)[C@@H](O)[C@@H](C)[C@H](OC(C)=O)[C@@H]1C)C4=O (stereo partly drawn) [RTI-175, 11-deoxy-11-hydroxy-4-deoxy-3,4[2-spiro-[1-(isobutyloxycarbonyl)-piperidin-4-yl]]-(1H)-imidazo-(2,5-dihydro)rifamycin S]
[5]
  Magnitude of potentiation in combination with doxorubicin: ++ (potentiation between 2.1 to 5 fold increase)
  Fold increase in potency over DOX alone: 2.2 fold
[7]
  Magnitude of potentiation in combination with doxorubicin: ++ (potentiation between 2.1 to 5 fold increase)
[4]; OVCAR-3, ovarian carcinoma
  Magnitude of potentiation in combination with doxorubicin: + (potentiation between 1.2 to 2.0 fold increase)
[1]
  Magnitude of potentiation in combination with doxorubicin: + (potentiation between 1.2 to 2.0 fold increase)
[9]
  Magnitude of potentiation in combination with doxorubicin: ++ (potentiation between 2.1 to 5 fold increase)
[8]
  Magnitude of potentiation in combination with doxorubicin: +++ (potentiation greater than 5 fold increase)

## COC1C=COC2(C)Oc3c(C)c(O)c4c(c3C2N)C2=NC3(CCN(C(=O)OCC(C)C)CC3)NC2=C(NC(=O)C(C)=CC=CC(C)C(O)C(C)C(O)C(C)C(OC(C)=O)C1C)C4=O (stereo not drawn) [RTI-176, 11-deoxy-11-amino-4-deoxy-3,4[2-spiro-[1-(isobutyloxycarbonyl)-piperidin-4-yl]]-(1H)-imidazo-(2,5-dihydro)rifamycin S]
[5]
  Magnitude of potentiation in combination with doxorubicin: +++ (potentiation greater than 5 fold increase)
  Fold increase in potency over DOX alone: 5.2 fold
[5]; analog alone, read-out: IC50
  IC50: > 64 µM
[5]; [17]
  IC50: 0.45 µM
[10]
  comparative cytotoxicity to normal cells: not toxic to normal cells
[9]
  Magnitude of potentiation in combination with doxorubicin: + (potentiation between 1.2 to 2.0 fold increase)
[8]
  Magnitude of potentiation in combination with doxorubicin: +++ (potentiation greater than 5 fold increase)

## CC(C)C[C@H](NC(=O)[C@H](Cc1ccccc1)NC(=O)c1cnccn1)B(O)O [Velcade, bortezomib]
[9]; therapeutic drug alone, OVCAR-5, read-out: IC50
  IC50: 0.17 µM
[9]; therapeutic drug with Rifabutin, OVCAR-5, read-out: IC50 (μM) with Rifabutin
  IC50: 0.08 µM
[9]; with vs without Rifabutin, OVCAR-5
  Fold increase in potency: 2.1 fold

## COc1cc2c(cc1OC)CN(CCc1ccc(NC(=O)c3cccc4c(=O)c5cccc(OC)c5[nH]c34)cc1)CC2 [elacridar]
[11]
  calcium mobilization: induced calcium in a similar manner as RTI-79
[12]
  total intracellular ROS: induced ROS
[13]
  total intracellular ROS: induced ROS
[14]
  total intracellular ROS: induced ROS

## COC(=O)[C@H]1[C@H]2C[C@@H]3c4[nH]c5cc(OC)ccc5c4CCN3C[C@H]2C[C@@H](OC(=O)c2cc(OC)c(OC)c(OC)c2)[C@@H]1OC [reserpine]
[12]
  total intracellular ROS: induced ROS
[13]
  total intracellular ROS: induced ROS
[14]
  total intracellular ROS: induced ROS

Reference: patent US20150017673A1, “COMPOSITIONS AND METHODS FOR DRUG-SENSITIZATION OR INHIBITION OF A CANCER CELL” (priority 2012, published 2015)
